Laboratory results taken from patent publication US9096585B2 (Icahn School of Medicine at Mount Sinai, priority 2010, dated 2015).

System: influenza viruses
Assay type: cell-based, influenza virus

## Cc1[nH]c2ccc(-c3nnc(SCC(=O)N4CCCC4)o3)cc2c1C [Compound A3]
  generation of A3-resistant influenza viruses: unsuccessful
